According to patent publication US6555356B2, “Methods for microbial regulation” (Unisearch Limited, priority 1995, dated 2003):
≈ marks a conversion by molar mass, not a printed value. Entries after “also recorded” stand apart in the source; their conditions may differ.

Columns and labels:
Format in all cases: cell-based
[1] = test system: strain R86; assay: Marine isolate swarming, strain R86
Description: (§1) Serratia liquefaciens was grown in liquid LB medium at room temperature to an optical density of 0.3 at 450 nm and stable inoculated onto LB agar (0.7% agar) plates. Plates were incubated at 30° C. and observed regularly for swarming behaviour. The effect on swarming of furanone compounds was tested by adding (after sterilisation and cooling of the agar) compounds 1-13 (FIG. 3). in the concentration range of 5-100 μg/ml, to the plates.
(§2) Methods followed those described for Serratia liquefaciens (above). Inhibition of growth of these bacteria by furanones was assessed as above.

[2] = test system: strain R12; assay: Marine isolate growth in liquid media, strain R12
Description: (§3) The effect on growth of Serratia liquefaciens by furanone compounds was also measured in liquid LB medium by comparing growth of cultures without the addition of compounds versus growth of cultures with added furanone compounds (100 μg/ml of compounds 1-13 (FIG. 3) in separate cultures). Growth was measured as optical density at 450 nm and followed over a 48 hr period.
as §2

[3] = test system: strain V55; assay: Marine isolate swarming, strain V55
Description: as §1, §2

[4] = test system: Chromobacterium violencia; assay: Growth of Chromobacterium violencia; conditions: 100 μg/ml
Description: as §3
A mutant of Chromobacterium violencia negative for the HSL auto inducer was used in the assay. The strain was pour plated in LB medium at high density and wells were punched after the media had set. Sterile, filtered supernatants from various HSL producing strains were added to the wells. Plates were incubated at 30° C. and observed for the formation of purple zones (due to […]) around the wells. The effects of furanone compounds 1 and 2 (FIG. 3) were assessed by running this assay on plates of LB medium containing furanone compounds at a concentration of 100 μg/ml. The effects of the compounds on growth of Chromobacterium were assessed as above.

[5] = test system: strain R130; assay: Marine isolate swarming, strain R130
Description: as §1, §2

[6] = test system: strain V54; assay: Marine isolate swarming, strain V54
Description: as §1, §2

[7] = test system: strain V54; assay: Marine isolate swimming, strain V54
[8] = test system: strain V21; assay: Marine isolate swimming, strain V21
[9] = test system: Vibrio harveyi; assay: Growth of Vibrio harveyi
Description: as §3
(§4) Initial assays for both strains of Vibrio were streaked onto LB agar plates (with 2% NaCl) with and without furanone compounds 1-4 at 5-100 μg/ml. Bioluminescence of the plates was visually assessed after 24 hours of incubation at room temperature. In subsequent assays, both strains were grown in liquid culture in the presence of furanones. Bioluminescence was assayed via a luminometer. The effects of furanones on growth of both strains were assayed as above.

[10] = test system: Serratia liquefaciens; assay: Serratia liquefaciens exoprotease assay (skim milk agar clearing zones); conditions: 100 μg/ml; for exoprotease activity of the wild type: Serratia liquefaciens wild type; for Effect on HSL phenotype: exoenzymes (exoprotease production): Serratia liquefaciens
Description: For assays of production of exoproteases by Serratia liquifaciens the bacteria were cultured as above and inoculated in liquid LB medium. The effects of furanone compounds were tested by adding compounds 3 and 4 (FIG. 3) at 100 μg/ml. Aliquots were withdrawn from the cultures, centrifuged and sterile filtered. Sixty microliters of supernatant were added to wells in skim milk agar plates (1.5% skim milk in M9 medium). Plates were incubated at room temperature and observed for clearing zones around the wells.

[11] = test system: strain R86; assay: Marine isolate growth in liquid media, strain R86
Description: as §3, §2

[12] = test system: Serratia liquefaciens; assay: Growth of Serratia liquefaciens in liquid LB medium; conditions: 100 μg/ml
Description: as §3

[13] = test system: strain V55; assay: Marine isolate swimming, strain V55
[14] = test system: strain R130; assay: Marine isolate swimming, strain R130
[15] = test system: strain R130; assay: Marine isolate growth in liquid media, strain R130
Description: as §3, §2

[16] = test system: strain R12; assay: Marine isolate swimming, strain R12
[17] = test system: strain V55; assay: Marine isolate growth in liquid media, strain V55
Description: as §3, §2

[18] = test system: Pseudomonas aeruginosa; assay: Growth of Pseudomonas aeruginosa on plates; conditions: 100 μg/ml
Description: (§5) Inoculants from precultures were streaked onto Peptone-Tryptic Soy Broth agar containing 0.3% elastin. Plates were incubated at 37° C. and observed for hydrolysis of the elastin. The effect of furanone compounds was assess by adding compounds 1-4 (100 μg/ml) to the plates and comparing zones of hydrolysis in plates with and without the compounds.

[19] = test system: Erwinia carotovora; assay: Growth of Erwinia carotovora
[20] = test system: Proteus mirabilis; assay: Proteus mirabilis swarming assay; conditions: LB10 with 1.5% agar
[21] = test system: strain V54; assay: Marine isolate growth in liquid media, strain V54
Description: as §3, §2

[22] = test system: Erwinia carotovora; assay: Erwinia carotovora (exoenzyme) assay on potato slices
Description: Inoculants from precultured E. carotovora were added to slices of potatoes. Degradation (softening and browning) of the potato was compared on slices with and without furanone compounds (3 and 4).

[23] = test system: strain V21; assay: Marine isolate growth in liquid media, strain V21
Description: as §3, §2

[24] = test system: strain R12; assay: Marine isolate swarming, strain R12
Description: as §1, §2

[25] = test system: Proteus mirabilis; assay: Proteus mirabilis growth; conditions: concentrations inhibitory to swarming, 37 C
Description: as §2

[26] = test system: Pseudomonas aeruginosa; assay: Pseudomonas aeruginosa (elastase) assay; conditions: 100 μg/ml in elastin agar
Description: as §5

[27] = test system: Proteus mirabilis; assay: Proteus mirabilis swimming; conditions: concentrations inhibitory to swarming, LB10 with 0.3% agar
[28] = test system: Vibrio fisheri; assay: Growth of Vibrio fisheri
Description: as §3, §4

[29] = test system: strain V21; assay: Marine isolate swarming, strain V21
Description: as §1, §2

[30] = test system: strain R86; assay: Marine isolate swimming, strain R86
[31] = test system: Serratia liquefaciens; assay: Serratia liquefaciens swarming assay; conditions: 5-100 μg/ml in LB agar (0.7%) plates
Description: as §1

[32] = test system: Helminthosporium sp.; assay: Fungal growth inhibition zone assay, Helminthosporium sp.
Description: (§6) In addition to the tests described above, the effects of selected compounds of the general formula 2 on growth of bacteria, one yeast (Candida albicans) and one fungus (Helminthosporium sp.) were assessed. Bacteria were grown in liquid media in the presence of different concentrations of furanones and growth measured via changes in optical density (OD). Fungal assays were done by inoculating agar plates with spores. These plates contained different concentrations of furanone compounds in wells within the plates. Zones of inhibition around these wells were measured after 48 hours.

[33] = test system: Vibrio harveyi; assay: Vibrio harveyi bioluminescence assay; conditions: 100 μg/ml, visual inspection of agar plates
Description: as §4

[34] = test system: Vibrio fisheri; assay: Vibrio fisheri bioluminescence assay; conditions: 100 μg/ml, visual inspection of agar plates
Description: as §4

[35] = test system: Candida albicans; assay: Fungal growth inhibition zone assay, Candida albicans
Description: as §6

SMILES	Minimum inhibitory concentration, Swarming [1]	Minimum inhibitory concentration, Growth [2]	Minimum inhibitory concentration, Swarming [3]	Minimum inhibitory concentration, Swarming [5]	Minimum inhibitory concentration, Swarming [6]	Minimum inhibitory concentration, Swimming [7]	Minimum inhibitory concentration, Swimming [8]	Effect on bacterial growth [9]	exoprotease activity of the wild type [10]	Effect on HSL phenotype: exoenzymes (exoprotease production) [10]	Minimum inhibitory concentration, Growth [11]	Effect on bacterial growth [12]	Minimum inhibitory concentration, Swimming [13]	Minimum inhibitory concentration, Swimming [14]	Minimum inhibitory concentration, Growth [15]	Minimum inhibitory concentration, Swimming [16]	Minimum inhibitory concentration, Growth [17]	Effect on bacterial growth [18]	Effect on bacterial growth [19]	Minimum inhibitory concentration, Growth [21]	further results
CCCC(O)C1=C(Br)C(=CBr)OC1=O (stereo not shown) [Compound 4]	5 µg/mL (≈ 15.3 µM)	25 µg/mL (≈ 76.7 µM)	5 µg/mL (≈ 15.3 µM)	5 µg/mL (≈ 15.3 µM)	5 µg/mL (≈ 15.3 µM)	5 µg/mL (≈ 15.3 µM)	5 µg/mL (≈ 15.3 µM)	no effect	3 and 4 decreases	inhibit; also recorded: decrease/	25 µg/mL (≈ 76.7 µM)	no effect	5 µg/mL (≈ 15.3 µM)	25 µg/mL (≈ 76.7 µM)	25 µg/mL (≈ 76.7 µM)	25 µg/mL (≈ 76.7 µM)	25 µg/mL (≈ 76.7 µM)	no detectable effect	without inhibiting; also recorded: no effect	25 µg/mL (≈ 76.7 µM)	Effect on bacterial growth [4]: inhibit; Effect on swarming [20]: inhibited; Effect on HSL phenotype: exoenzymes [22]: decreases; also recorded: inhibit; Minimum inhibitory concentration, Growth [23]: 5 µg/mL (≈ 15.3 µM); Minimum inhibitory concentration, Swarming [24]: 5 µg/mL (≈ 15.3 µM); Effect on growth [25]: did not affect; Effect on HSL phenotype: elastase [26]: inhibited; also recorded: delay/; Effect on swimming [27]: did not affect; Effect on bacterial growth [28]: no effect; Minimum inhibitory concentration, Swarming [29]: 5 µg/mL (≈ 15.3 µM); Minimum inhibitory concentration, Swimming [30]: 25 µg/mL (≈ 76.7 µM); Effect on HSL phenotype: swarming [31]: inhibit
CCCC(OC(C)=O)C1=C(Br)C(=CBr)OC1=O (stereo not shown) [Compound 3]	5 µg/mL (≈ 13.6 µM)	>50 µg/mL	5 µg/mL (≈ 13.6 µM)	25 µg/mL (≈ 67.9 µM)	5 µg/mL (≈ 13.6 µM)	5 µg/mL (≈ 13.6 µM)	25 µg/mL (≈ 67.9 µM)	no effect	3 and 4 decreases	inhibit; also recorded: decrease/	>50 µg/mL	no effect	5 µg/mL (≈ 13.6 µM)	>50 µg/mL	25 µg/mL (≈ 67.9 µM)	50 µg/mL (≈ 136 µM)	5 µg/mL (≈ 13.6 µM)	no effect	no effect	25 µg/mL (≈ 67.9 µM)	width of inhibition zone ([32]; amount added 0.1 μg): 0 mm; width of inhibition zone ([32]; amount added 1 μg): 0 mm; width of inhibition zone ([32]; amount added 10 μg): 6-9 mm; width of inhibition zone ([32]; amount added 100 μg): 6-20 mm; Effect on HSL phenotype: luminescence [33]: inhibit; Effect on HSL phenotype: luminescence [34]: inhibit; width of inhibition zone ([35]; amount added 0.1 μg): 0 mm; width of inhibition zone ([35]; amount added 1 μg): 0 mm; width of inhibition zone ([35]; amount added 10 μg): 1-2 mm; width of inhibition zone ([35]; amount added 100 μg): 2-3 mm; Effect on HSL phenotype: exoenzymes [22]: no effect; Minimum inhibitory concentration, Growth [23]: 5 µg/mL (≈ 13.6 µM); Minimum inhibitory concentration, Swarming [24]: 5 µg/mL (≈ 13.6 µM); Effect on HSL phenotype: elastase [26]: inhibited; also recorded: delay/; Effect on bacterial growth [28]: no effect; Minimum inhibitory concentration, Swarming [29]: 5 µg/mL (≈ 13.6 µM); Minimum inhibitory concentration, Swimming [30]: >50 µg/mL; Effect on HSL phenotype: swarming [31]: inhibit
